Test results published in patent publication US6391879B1, “Therapeutic anti-fungal nail preparation” (Astan, Inc., priority 1998, dated 2002).

System: fungi in Onychomycosis and tinea pedis
Test: Tolnaftate solution concentration sufficient to kill the fungi
Conditions: used in a penetrating base
From the text: Tolnaftate USP (known by the trade name Tinactin ™) is a white crystalline powder that has been used as a primary agent in anti-fungal preparations. […] Other anti-fungal agents effective in fighting the fungi causing Onychomycosis and tinea pedis and suitable for use in the present invention are: Clotrimazole, Tioconazole, Nystatin, Terconazole, Butoconazole Nitrate, Unecylenic Acid, Clioquinol, Ciclopirox, Olamine, Econazole Nitrate, Triacetin, Miconazole, Flucytosine, and Ketoconazole.

## Cc1cccc(N(C)C(=S)Oc2ccc3ccccc3c2)c1 [Tolnaftate]
  solution concentration sufficient to kill the fungi: 1%
